The structures appear in SMILES notation.

The test system of the first data set is platelet aggregation. Briefly: blood platelet aggregation inhibition, collagen as inducer. Type of data set: cell-based. Conditions: 10^-4 mole, rabbit PRP. The text has this:
Blood platelet aggregation inhibiting effect
Male rabbits (Japan original white strain 3.3 to 3.6 kg) were anesthetized with Thiopental sodium and blood was sampled from the carotid artery.
On to `CCCc1ccc(C(=O)c2c(C)cc(C)cc2C)cc1` [compound 97], for which the “Blood platelet agg. inh. (percentage inhibition of platelet aggregation)” value worked out at 26.8%.
As to `COc1ccc(C(=O)Cc2ccc(Cl)cc2)cc1` [compound 60], the “Blood platelet agg. inh. (percentage inhibition of platelet aggregation)” value came to 4.0%.
Consider `CCCCCCCCc1ccc(C(=O)c2ccc(CCCC)cc2)cc1` [compound 101], for which the “Blood platelet agg. inh. (percentage inhibition of platelet aggregation)” value was 27.9%.
On the same count and under the same terms, in the case of `CCCOc1ccc(C(=O)Cc2ccccc2)cc1` [compound 58] it was 20.1%.
For the molecule `CCCCCCCCCCCCc1ccc(C(=O)c2ccccc2)cc1` [compound 69], the “Blood platelet agg. inh. (percentage inhibition of platelet aggregation)” value stood at 13.5%.
Still for that read-out and setting: in the case of `Cc1ccc(C(=O)c2ccccc2)cc1` [compound 65] it was 21.0%.
For `C=Cc1ccc(C(=O)c2ccccc2)cc1` [compound 82], the “Blood platelet agg. inh. (percentage inhibition of platelet aggregation)” value is 20.5%.
In the case of `Cc1cc(C)c(C(=O)c2ccc(O)cc2)c(C)c1` [compound 108], the “Blood platelet agg. inh. (percentage inhibition of platelet aggregation)” value came to 28.4%.
Same read-out and setting: then `CCCCCCCCCCc1ccc(C(=O)c2ccccc2)cc1` [compound 68], with 16.5%; and `CCCCCCCCCc1ccc(C(=O)c2ccc(CCCC)cc2)cc1` [compound 102], with 30.4%; and `O=C(c1ccc(F)cc1)c1ccccc1Cl` [compound 115], with 25.4%.
As to `CCCc1ccc(C(=O)c2ccc(OC)cc2)cc1` [compound 93], the “Blood platelet agg. inh. (percentage inhibition of platelet aggregation)” value was found to be 24.4%.
`CCOc1ccc(C(=O)c2ccccc2)cc1` [compound 81]: the “Blood platelet agg. inh. (percentage inhibition of platelet aggregation)” value worked out at 18.3%.
Still for that read-out and setting: then `CCCCc1ccc(CCCC)c(C(=O)c2ccccc2)c1` [compound 77], with 25.1%.
In the case of `CCc1ccc(C(=O)C(=O)c2ccccc2)cc1` [compound 55], the “Blood platelet agg. inh. (percentage inhibition of platelet aggregation)” value is 23.3%.
Same read-out and setting: then `Cc1cc(C)c(C)c(C(=O)c2ccccc2)c1C` [compound 78], with 19.9%.
Consider `CCCCCCCCCCCc1ccc(C(=O)Cc2ccccc2)cc1` [compound 51], for which the “Blood platelet agg. inh. (percentage inhibition of platelet aggregation)” value was 9.5%.
As for `CCCc1ccc(C(=O)c2ccc(C)cc2C)cc1` [compound 96], the “Blood platelet agg. inh. (percentage inhibition of platelet aggregation)” value is listed as 28.5%.
Still for that read-out and setting: in the case of `CCCCCCCCCCCc1ccc(C(=O)c2ccccc2)cc1` [compound 71] it was 19.5%; in that of `CCCCc1ccc(C(=O)c2cccc(C)c2)cc1` [compound 88], 24.5%.
As for `CCc1ccc(CC)c(C(=O)c2ccccc2)c1` [compound 80], the “Blood platelet agg. inh. (percentage inhibition of platelet aggregation)” value came to 30.3%.
For `O=C(c1ccccc1)c1ccc(O)cc1` [compound 109], the “Blood platelet agg. inh. (percentage inhibition of platelet aggregation)” value is given as 13.7%.
For the molecule `Cc1ccc(C(=O)Cc2ccccc2)cc1` [compound 48], the “Blood platelet agg. inh. (percentage inhibition of platelet aggregation)” value was determined as 20.5%.
Still for that read-out and setting: then `CCCCCOc1ccc(C(=O)Cc2ccccc2)cc1` [compound 59], with 25.6%.
On to `CCCCCc1ccc(C(=O)c2ccc(CCCCC)cc2)cc1` [compound 111], for which the “Blood platelet agg. inh. (percentage inhibition of platelet aggregation)” value amounted to 10.3%.
For `CCCc1ccc(C(=O)c2ccc(CCC)cc2)cc1` [compound 110], the “Blood platelet agg. inh. (percentage inhibition of platelet aggregation)” value is 20.5%.
The same measure, in the same setting: then `CCCCOc1ccc(C(=O)c2ccc(CCCC)cc2)cc1` [compound 95], with 30.0%; and `CCCc1ccc(C(=O)c2cccc(C)c2)cc1` [compound 87], with 30.1%; and `CCCCCCCc1ccc(C(=O)c2ccc(CCCC)cc2)cc1` [compound 100], with 22.4%.
Same read-out and setting: then `Cc1ccc(C(=O)c2ccc(C)cc2)cc1` [compound 83], with 27.6%.
Same read-out and setting: in the case of `CCCc1ccc(C(=O)c2ccc(CC)cc2)cc1` [compound 112] it was 11.8%; in that of `CCCCCCCCCCCCc1ccc(C(=O)Cc2ccccc2)cc1` [compound 52], 6.8%.
Take `Cc1ccc(C(=O)c2c(C)cc(C)cc2C)cc1` [compound 86]: the “Blood platelet agg. inh. (percentage inhibition of platelet aggregation)” value was found to be 28.3%.

Tested on in another data set: not listed separately
Briefly: in vivo. Conditions: mouse, po. On the procedure: Each sample was dissolved in olive oil or dispersed in 1% Tween 20 aqueous solution.
Take `Cc1cc(C)c(C(=O)c2ccc(I)cc2)c(C)c1` [compound 166]: the LD50 at 72 h was found to be 5000 mg/kg.
On the same count and under the same terms, in the case of `CCCCCc1ccc(C(=O)c2ccccc2I)cc1` [compound 156] it was > 10000 mg/kg; in that of `Cc1ccc(C(=O)c2ccc(I)cc2)c(C)c1` [compound 165], 5000 mg/kg.
Still for that read-out and setting: then `CCCCCCCCc1ccc(C(=O)c2ccc(F)cc2)cc1` [compound 129], with > 10000 mg/kg.
Same read-out and setting: in the case of `Cc1ccc(C(=O)c2cccc(F)c2)c(C)c1` [compound 126] it was 1000 mg/kg; in that of `CCCc1ccc(C(=O)c2ccccc2Br)cc1` [compound 142], 1500 mg/kg.
As to `CCCCCc1ccc(C(=O)c2cccc(F)c2)cc1` [compound 124], the LD50 at 72 h is 3000 mg/kg. This LD50 at 72 h is about 2-fold higher than that of the molecule before.
The molecule `Cc1cc(C)c(C(=O)c2ccccc2I)c(C)c1` [compound 159] had an LD50 at 72 h of 1000 mg/kg.
`CCCCc1ccc(C(=O)c2ccc(F)cc2)cc1` [compound 127] displayed an LD50 at 72 h of 5000 mg/kg.
On the same count and under the same terms, in the case of `CCCCCCCCc1ccc(C(=O)c2cccc(Br)c2)cc1` [compound 148] it was 2000 mg/kg.
Turning to `CCC(C)c1ccc(C(=O)c2ccccc2F)cc1` (stereo not shown) [compound 119], the LD50 at 72 h worked out at 2000 mg/kg.
Same read-out and setting: then `CCCCCCCCc1ccc(C(=O)c2ccc(Br)cc2)cc1` [compound 151], with 2500 mg/kg; and `CCCCc1ccc(C(=O)c2ccccc2I)cc1` [compound 155], with > 10000 mg/kg.
For the molecule `Cc1ccc(C(=O)c2ccccc2Br)c(C)c1` [compound 146], the median lethal dose (LD50) at 72 h is 1000 mg/kg.
`CCCCCc1ccc(C(=O)c2ccc(F)cc2)cc1` [compound 128] displayed an LD50 at 72 h of 4000 mg/kg. This LD50 at 72 h lies about 4-fold higher than the previous one.
Same read-out and setting: then `CCCCc1ccc(C(=O)c2ccccc2Br)cc1` [compound 143], with 1500 mg/kg; and `CCCCCCCCc1ccc(C(=O)c2ccccc2I)cc1` [compound 157], with > 10000 mg/kg; and `CCCCCCCCc1ccc(C(=O)c2ccc(I)cc2)cc1` [compound 164], with > 10000 mg/kg.
Still for that read-out and setting: in the case of `CCCc1ccc(C(=O)c2ccc(Br)cc2)cc1` [compound 150] it was 2000 mg/kg.
On to `CCCc1ccc(C(=O)c2ccccc2Cl)cc1` [compound 132], for which the 50% lethal dose (LD50) at 72 h came out at 2000 mg/kg.
In the case of `Cc1cc(C)c(C(=O)c2ccc(F)cc2)c(C)c1` [compound 131], the 50% lethal dose (LD50) at 72 h was 2000 mg/kg.
On the same count and under the same terms, then `Cc1cc(C)c(C(=O)c2ccc(Br)cc2)c(C)c1` [compound 153], with 1500 mg/kg.
`CCCCCCOc1ccc(C(=O)c2ccc(Cl)cc2)cc1` [compound 138] had a median lethal dose (LD50) at 72 h of 2500 mg/kg.
Regarding `Cc1ccc(C(=O)c2ccccc2Cl)c(C)c1` [compound 135], the median lethal dose (LD50) at 72 h amounted to 1000 mg/kg.
The same measure, in the same setting: then `Cc1cc(C)c(C(=O)c2cccc(F)c2)c(C)c1` [compound 125], with 1000 mg/kg.
Molecule `CCCc1ccc(C(=O)c2cccc(Cl)c2)cc1` [compound 139] displayed a 50% lethal dose (LD50) at 72 h of 1000 mg/kg.
Consider `CCCc1ccc(C(=O)c2ccccc2I)cc1` [compound 154], for which the LD50 at 72 h is > 10000 mg/kg.
Turning to `COc1ccc(C(=O)c2ccc(Cl)cc2)cc1` [compound 136], the 50% lethal dose (LD50) at 72 h came out at 2000 mg/kg.
The same measure, in the same setting: in the case of `Cc1ccc(C(=O)c2cccc(I)c2)c(C)c1` [compound 162] it was 1500 mg/kg; in that of `CCCCOc1ccc(C(=O)c2ccc(Cl)cc2)cc1` [compound 137], 2000 mg/kg; in that of `Cc1ccc(C(=O)c2ccc(F)cc2)c(C)c1` [compound 130], 2000 mg/kg.
The same measure, in the same setting: in the case of `COc1ccc(C(=O)c2ccccc2F)cc1` [compound 116] it was 4000 mg/kg; in that of `CCCCCc1ccc(C(=O)c2cccc(Cl)c2)cc1` [compound 140], 1000 mg/kg.
On the same count and under the same terms, then `CCCCCc1ccc(C(=O)c2ccccc2Br)cc1` [compound 144], with 1500 mg/kg.
Regarding `CC(C)c1ccc(C(=O)c2ccccc2F)cc1` [compound 117], the LD50 at 72 h came to 1500 mg/kg.
The same measure, in the same setting: then `CCCCCCCCc1ccc(C(=O)c2ccccc2Br)cc1` [compound 145], with 2000 mg/kg.
The molecule `CCCCCCCCc1ccc(C(=O)c2ccccc2Cl)cc1` [compound 134] yielded a median lethal dose (LD50) at 72 h of 3000 mg/kg.
Take `CC(C)(C)c1ccc(C(=O)c2ccccc2F)cc1` [compound 120]: the LD50 at 72 h was found to be 750 mg/kg.
Still for that read-out and setting: then `CCCCc1ccc(C(=O)c2cccc(I)c2)cc1` [compound 160], with 2500 mg/kg; and `Cc1ccc(C(=O)c2ccc(Br)cc2)c(C)c1` [compound 152], with 1500 mg/kg.
The same measure, in the same setting: in the case of `Cc1cc(C)c(C(=O)c2ccccc2Br)c(C)c1` [compound 147] it was 1000 mg/kg; in that of `Cc1cc(C)c(C(=O)c2cccc(I)c2)c(C)c1` [compound 163], 1500 mg/kg.
With `CC(C)Cc1ccc(C(=O)c2ccccc2F)cc1` [compound 118], the LD50 at 72 h was determined as 2000 mg/kg.
Same read-out and setting: then `Cc1ccc(C(=O)c2ccccc2I)c(C)c1` [compound 158], with 2000 mg/kg; and `CCCCCc1ccc(C(=O)c2ccccc2Cl)cc1` [compound 133], with 2000 mg/kg; and `CCCCCCCCc1ccc(C(=O)c2cccc(Cl)c2)cc1` [compound 141], with 2000 mg/kg.
Same read-out and setting: in the case of `CCCCc1ccc(C(=O)c2cccc(F)c2)cc1` [compound 123] it was 1500 mg/kg; in that of `Cc1ccc(C(=O)c2cccc(Br)c2)c(C)c1` [compound 149], 500 mg/kg.
Same read-out and setting: then `CCC(C)(C)c1ccc(C(=O)c2ccccc2F)cc1` [compound 122], with 2000 mg/kg.

The term LD50 denotes the dose expected to kill half of the subjects tested.

The record behind these values is patent publication US4124726A, “Anti-inflammatory agent of benzoyl derivative” (priority 1976, dated 1978).
